In article PMC10600239, “Selective MCL-1 inhibitor ABBV-467 is efficacious in tumor models but is associated with cardiac troponin increases in patients” (Communications Medicine, 2023):
Values joined by “and” are separate entries in the source; they are usually repeats but may differ in a detail not shown here. Equal entries are not always repeated.

Test system: AMO-1 xenografts
Assay: AMO-1 xenograft efficacy (tumor volume, body weight); on Mortality Observation Day 34: key: EUTV: Euthanized: tumor volume
Assay type: in vivo, mouse
Design: key to Anti-tumor Activity vs. AMO-1 (DSMZ), Median / Anti-tumor Activity vs. AMO-1 (DSMZ), individual animal / Anti-tumor Activity vs. AMO-1 (DSMZ), Mean: tumor volume in mm^3 (length × width^2/2)
Experimental: All animal studies were conducted in accordance with the guidelines approved by the Institutional Animal Care and Use Committees of AbbVie. The research protocol was approved by In Vivo Pharmacology at AbbVie prior to study initiation but was not publicly registered or disclosed. Female C.B-17 SCID-beige mice (AMO-1, OPM-2, NCI-H929, and OCI-AML2 xenografts) and female NSG mice (MV4-11-Red.Fluc systemic) were purchased from Charles River Laboratories (Wilmington, MA). Animals were housed in a light cycle-controlled room with HEPA filtration at 22 °C. Animals had nesting and climbing cage topper as the primary environmental enrichment. Animals were inoculated subcutaneously in the right flank with 5 × 10^6 (AMO-1, OPM-2, NCI-H929, and OCI-AML2) or intravenous (IV) with 5 × 10^6 (MV4-11-Red.Fluc). The inoculation volume (0.2 mL) comprised a 50:50 mixture of cells in growth media and Matrigel (BD Biosciences) for subcutaneous injections and 100% phosphate-buffered saline for IV administration. All cell lines used in this publication were authenticated using IDEXX for STR profiling as well as their IMPACT and human IMPACT panels for pathogen screening. Electronic calipers were used to measure the length and width of each tumor 2 to 3 times per week. Tumor volume was estimated by applying the following equation: volume = length × width^2/2. All groups remained blinded during measurements and dosing; only veterinary staff were aware of group identity. When tumors reached approximately 200 mm^3, mice were randomized by match and distributed into treatment and control groups. All xenograft trials were conducted using 5 to 10 mice per group, and all mice were ear tagged and monitored individually throughout the studies. […] Tumor burden in the systemic MV4-11-Red.Fluc experiment was measured using an IVIS® spectrum from PerkinElmer by taking the total photon flux of the entire dorsal side of an individual mouse. […] A background control mouse that was tumor naive but received D-Luciferin was placed in the upper left corner of each image. The total flux from this animal was subtracted from the total flux of each animal present in the image.
For in vivo studies, maximal tumor growth inhibition (TGI) was calculated as the greatest treatment response using the following equation: Maximal TGI = (1 − mean tumor volume of the treated group/mean tumor volume of the vehicle control group) × 100. The tumor growth delay (TGD) percentage was determined as the percentage increase of the median time period for the treatment group to reach an arbitrary tumor volume of 1000 mm^3 relative to the vehicle control group. […] A power analysis was conducted using historical data to determine the number of animals required to yield significance of 0.05 at a 30% difference. […] Data from experiments in vivo were analyzed using the student’s t-test for TGI values and the Mann–Whitney U test for TGD using Excel and GraphPad Prism. Fisher’s exact test was used to probe significance of differences in response frequency.

[1] = 3.13 mg/kg QDx1 IV, Day 28, n=8
[2] = 3.13 mg/kg QDx1 IV, SCID-beige mice, Day 21
[3] = 3.13 mg/kg QDx1 IV, SCID-beige mice, Day 23
[4] = 3.13 mg/kg QDx1 IV, SCID-beige mice, Day 23, mean(T)/mean(C)
[5] = 3.13 mg/kg QDx1 IV, SCID-beige mice, Day 23, median(T)/median(C)

Cc1c(Cl)c2c(Cl)c(C)c1-c1c(-c3ccc(F)cc3)sc3ncnc(c13)O[C@@H](C(=O)O)Cc1cc(ccc1OCc1ccnc(-c3ccc(OC[C@H]4COCCO4)cc3)n1)OC[C@@H](CN1CCN(C)CC1)O2 [Compound A-1747745.0]
% T/C (mean) tumor volume Day 26 (3.13 mg/kg QDx1 IV, Day 26, mean(T)/mean(C)): 46.99%
% T/C (median) tumor volume Day 26 (3.13 mg/kg QDx1 IV, Day 26, median(T)/median(C)): 47.41%
Xenograft AMO-1 (DSMZ) tumor volume Day 28, Mean [1]: 1102.63 mm³
Xenograft AMO-1 (DSMZ) tumor volume Day 28, Median [1]: 1024.93 mm³
% T/C (mean) tumor volume Day 28 (3.13 mg/kg QDx1 IV, Day 28, mean(T)/mean(C)): 53.81%
% T/C (median) tumor volume Day 28 (3.13 mg/kg QDx1 IV, Day 28, median(T)/median(C)): 53.13%
Xenograft AMO-1 (DSMZ) tumor volume Day 26, individual animals (3.13 mg/kg QDx1 IV, SCID-beige female mice, Day 26): 859 mm³ and 654 mm³ and 702 mm³ and 664 mm³ and 464 mm³ and 884 mm³ and 882 mm³ and 812 mm³
Xenograft AMO-1 (DSMZ) tumor volume Day 28, individual animals (3.13 mg/kg QDx1 IV, SCID-beige female mice, Day 28): 1383 mm³ and 753 mm³ and 968 mm³ and 881 mm³ and 872 mm³ and 1157 mm³ and 1725 mm³ and 1082 mm³
Xenograft AMO-1 (DSMZ) Day 21, Mean [2]: 316.72 mm³
Xenograft AMO-1 (DSMZ) Day 21, Median [2]: 336.29 mm³
Xenograft AMO-1 (DSMZ) (mm³) Day 21, individual animals (3.13 mg/kg QDx1 IV, SCID-beige mice, Day 21, individual tumor volumes): 248 mm³ and 370 mm³ and 418 mm³ and 238 mm³ and 111 mm³ and 349 mm³ and 477 mm³ and 324 mm³
% T/C (mean), Tumor Volume Day 21 (3.13 mg/kg QDx1 IV, SCID-beige mice, Day 21, mean(T)/mean(C)): 49.55%
% T/C (median), Tumor Volume Day 21 (3.13 mg/kg QDx1 IV, SCID-beige mice, Day 21, median(T)/median(C)): 63.86%
Xenograft AMO-1 (DSMZ) Day 23 Mean [3]: 463.98 mm³
Xenograft AMO-1 (DSMZ) Day 23 Median [3]: 467.27 mm³
Xenograft AMO-1 (DSMZ) (mm³) Day 23, individual animals (3.13 mg/kg QDx1 IV, SCID-beige mice, Day 23, individual tumor volumes): 595 mm³ and 419 mm³ and 553 mm³ and 359 mm³ and 205 mm³ and 462 mm³ and 647 mm³ and 473 mm³
% T/C (mean), body weight Day 23 [4]: 104.12%
% T/C (mean), tumor volume Day 23 [4]: 43.45%
% T/C (median), body weight Day 23 [5]: 104.12%
% T/C (median), tumor volume Day 23 [5]: 48.01%
Xenograft AMO-1 (DSMZ) (mm³) Day 30 (individual animals) (3.13 mg/kg QDx1 IV, Day 30, SCID-beige female mice, tumor volume per animal): 1812 mm³ and 984 mm³ and 1324 mm³ and 1150 mm³ and 1149 mm³ and 1537 mm³ and 1916 mm³ and 1649 mm³
Xenograft AMO-1 (DSMZ) (mm³) Day 30 Mean (3.13 mg/kg QDx1 IV, Day 30, group mean): 1440.23 mm³
Xenograft AMO-1 (DSMZ) (mm³) Day 30 Median (3.13 mg/kg QDx1 IV, Day 30, group median): 1430.49 mm³
Xenograft AMO-1 (DSMZ) (mm³) Day 34 (individual animals) (3.13 mg/kg QDx1 IV, Day 34, SCID-beige female mice, tumor volume per animal): 2874 mm³ and 1660 mm³ and 1699 mm³ and 1719 mm³ and 1802 mm³ and 2605 mm³ and 2742 mm³ and 2768 mm³
Xenograft AMO-1 (DSMZ) (mm³) Day 34 Mean (3.13 mg/kg QDx1 IV, Day 34, group mean): 2233.47 mm³
Xenograft AMO-1 (DSMZ) (mm³) Day 34 Median (3.13 mg/kg QDx1 IV, Day 34, group median): 2203.67 mm³
Mortality Observation Day 34 (3.13 mg/kg QDx1 IV, Day 34, per animal): EUTV
Starting Body Wt. (6.25 mg/kg IV QDx1, AMO-1 xenograft, SCID-beige mice, in g (unit assumed)): 21.625
% Mortality (6.25 mg/kg IV QDx1, clinical observation): 100.00%
Anti-tumor Activity vs. AMO-1 (DSMZ), Mean (6.25 mg/kg IV QDx1, day 13): 216.25
Anti-tumor Activity vs. AMO-1 (DSMZ), Median (6.25 mg/kg IV QDx1, day 13): 216.39
Group Mean, Body Weight (6.25 mg/kg IV QDx1, day 14): 21.63 g
Anti-tumor Activity vs. AMO-1 (DSMZ), Mean (6.25 mg/kg IV QDx1, day 16): 172.06
Anti-tumor Activity vs. AMO-1 (DSMZ), Median (6.25 mg/kg IV QDx1, day 16): 173.79
Anti-tumor Activity vs. AMO-1 (DSMZ), Mean (6.25 mg/kg IV QDx1, day 19): 133.62
Anti-tumor Activity vs. AMO-1 (DSMZ), Median (6.25 mg/kg IV QDx1, day 19): 134.81
Anti-tumor Activity vs. AMO-1 (DSMZ), Mean (6.25 mg/kg IV QDx1, day 21): 175.92
Anti-tumor Activity vs. AMO-1 (DSMZ), Median (6.25 mg/kg IV QDx1, day 21): 202.13
Anti-tumor Activity vs. AMO-1 (DSMZ), Mean (6.25 mg/kg IV QDx1, day 23): 218.85
